Experimental data published in patent publication US10219516B2, “Molecules having pesticidal utility, and intermediates, compositions, and processes, related thereto” (priority 2015, dated 2019).

Structure (SMILES)	melting point
Nc1ccc(OC(F)(F)F)c(C(=O)Nc2ccc(F)cc2)c1	115 to 117 °C
O=C(O)C1C(c2ccc(F)c(Cl)c2)C1(Cl)Cl (stereo not shown) [C16]	121 to 123 °C
O=C(O)C1C(c2ccc(F)c(Cl)c2)C1(Cl)Cl (stereo not shown) [C420]	119 to 121 °C
O=C(Nc1ccc(F)cc1)c1cc([N+](=O)[O-])ccc1OC(F)(F)F	175 to 177 °C
Nc1ccc(Cl)c(C(=O)Nc2ccc(-c3ncco3)cc2)c1	227 °C (dec.)
O=C(O)C1C(c2cc(Cl)cc(C(F)(F)F)c2)C1(Cl)Cl (stereo not shown)	113 to 115 °C
O=C(Nc1ccc(F)cc1)c1cc(Cl)cc([N+](=O)[O-])c1	209 to 210 °C
CCc1ccc(N)cc1C(=O)Nc1ccc(F)cc1	129 to 131 °C
C=Cc1ccc([N+](=O)[O-])cc1C(=O)Nc1ccc(F)cc1	158 to 160 °C
COc1c(Cl)cc(C2C(C(=O)O)C2(Cl)Cl)cc1Cl (stereo not shown)	161 to 164 °C
O=C(Nc1ccc(-c2ncco2)cc1)c1cc([N+](=O)[O-])ccc1Cl	192 to 194 °C
O=C(O)c1cc(NC(=O)C2C(c3cc(Cl)cc(Cl)c3)C2(Cl)Cl)c(Cl)cc1Cl (stereo not shown)	263 to 266 °C
Cc1cc(NC(=O)OC(C)(C)C)ccc1NC(=O)c1cccc(N)c1	143 to 161 °C
O=C(O)C1C(c2cccc(C(F)(F)F)c2)C1(Cl)Cl (stereo not shown)	86 to 88 °C

More lines, now with the values ahead:

melting point	Structure (SMILES)
192 to 202 °C	O=C(Nc1ccc(F)c(C(F)(F)F)c1)c1cc([N+](=O)[O-])ccc1Cl
138 to 140 °C	O=C(O)C1C(c2cc(F)cc(Cl)c2)C1(Cl)Cl (stereo not shown)
50 to 81 °C	Nc1ccc(Cl)c(C(=O)Nc2ccc(-n3cccn3)cc2)c1
116 to 118 °C	O=C(O)C1C(c2ccc(C(F)(F)C(F)(F)F)cc2)C1(Cl)Cl (stereo not shown)
133 to 136 °C	Nc1cc(Cl)cc(C(=O)Nc2ccc(F)cc2)c1
200 to 205 °C	O=C(Nc1ccc(-n2cccn2)cc1)c1cc([N+](=O)[O-])ccc1Cl
129 to 130 °C	CCOc1ccc(C2C(C(=O)O)C2(Cl)Cl)cc1 (stereo not shown)
195 to 200 °C	Cc1cc(NC(=O)OC(C)(C)C)ccc1NC(=O)c1cc([N+](=O)[O-])ccc1Cl
